Measured values from US10808275B2, “Use of at least one chromogenic and/or fluorogenic phosphatase substrate for the detection and/or enumeration of enterobacteria in a sample” (BIOMERIEUX, priority 2013, dated 2020).

Tests used:
[1] = system: non-fermenting Gram-negative; assay: Specificity of phosphatase substrates: growth and coloration of non-enterobacteria strains on chromogenic agar media; format: cell-based, non-fermenting Gram-negative bacteria; conditions: for coloration >= 1: % positive non-fermenting Gram-negative strains; for growth: non-fermenting Gram-negative strains grown / 7 tested
Protocol: (§1) 38 bacterial strains, among which 31 enterobacteria and 7 non-enterobacteria, were tested on media containing various phosphatase substrates. Readings of the dishes were then taken at 24 h.
(§2) Then phosphatase substrates are added as follows: • Medium 1: addition of X-phosphate (X-P) at 60 mg/l • Medium 2: addition of Rose-phosphate (Rose-P) at 300 mg/L • Medium 3: addition of Magenta-phosphate (Magenta-P) at 300 mg/L • Medium 4: addition of Purple-phosphate (Purple-P) at 200 mg/L
(§3) The media are divided into Petri dishes.
(§4) Inoculation is performed from 24 h pre-cultures at 30° C. or 37° C., depending on the species, on Trypticase-soy medium.
(§5) Suspension in 0.5 McF physiological water is performed, and then the strains are inoculated with a 10 μl calibrated oese.
(§6) Readings are taken after 24 h and 48 h of incubation at 37° C.
(§7) Colonies with coloration intensities greater than or equal to 1 were considered positive, applying the reading scale below.
(§8) Reading scale of enzymatic activity/coloration • 0=no activity • 0.5=very pale coloration • 1=low-intensity distinct coloration • 2=medium-intensity obvious coloration • 3=intense coloration present, • 4=highly intense coloration present.

enterobacteria = assay: Specificity of phosphatase substrates: growth and coloration of enterobacteria strains on chromogenic agar media; format: cell-based; conditions: for coloration: % of enterobacteria strains coloured; for coloration >= 1: % of enterobacteria strains positive (intensity >= 1 on 0-4 reading scale); for growth: enterobacteria strains grown / 31 tested
Protocol: as §1, §2, §3, §4, §5, §6, §7, §8

Q: “5-bromo-6-chloro-3-indoxyl-phosphate [Magenta-P]” was tested. Which “coloration >= 1” value ([1]; 24 h at 37° C.) did it give?
A: Its value is 0%.

Q: And the “coloration >= 1” value ([1]; 48 h at 37° C.)?
A: Its value is 0%.

Q: What about the growth ([1]; 24 h at 37° C.) of the same compound?
A: Its growth is 5/7.

Q: What about the growth ([1]; 48 h at 37° C.) of the same compound?
A: Its growth is 7/7.

Q: And the “sensitivity of the substrate compared with the other substrates” value (enterobacteria; 24 h)?
A: The value was “most sensitive”.

Q: And the “sensitivity of the substrate compared with the other substrates” value (enterobacteria; 48 h)?
A: Its value is “largely identical”.

Q: And the coloration (enterobacteria; 48 h at 37° C.)?
A: Its coloration is 100%.

Q: What about the “coloration >= 1” value (enterobacteria; 24 h at 37° C.) of the same compound?
A: Its value is 90%.

Q: And the growth (enterobacteria; 24 h at 37° C.)?
A: The growth was 30/31.

Q: And the growth (enterobacteria; 48 h at 37° C.)?
A: Its growth is 31/31.

Q: For `O=P(O)(O)Oc1c[nH]c2cc(Cl)ccc12` [Rose-P, 6-chloro-3-indoxyl-phosphate], which “coloration >= 1” value ([1]; 24 h at 37° C.) is on record?
A: The value was 0%.

Q: And the “coloration >= 1” value ([1]; 48 h at 37° C.)?
A: The value was 0%.

Q: What about the growth ([1]; 24 h at 37° C.) of the same compound?
A: The growth was 5/7.

Q: What about the growth ([1]; 48 h at 37° C.) of the same compound?
A: Its growth is 7/7.

Q: What about the “sensitivity of the substrate compared with the other substrates” value (enterobacteria; 24 h) of the same compound?
A: Its value is “least sensitive”.

Q: What about the “sensitivity of the substrate compared with the other substrates” value (enterobacteria; 48 h) of the same compound?
A: Its value is “least sensitive”.

Q: What about the coloration (enterobacteria; 48 h at 37° C.) of the same compound?
A: The coloration was 94%.

Q: What about the “coloration >= 1” value (enterobacteria; 24 h at 37° C.) of the same compound?
A: Its value is 77%.

Q: What about the growth (enterobacteria; 24 h at 37° C.) of the same compound?
A: The growth was 30/31.

Q: What about the growth (enterobacteria; 48 h at 37° C.) of the same compound?
A: Its growth is 31/31.

Q: With `O=P(O)(O)Oc1c[nH]c2ccc(Br)c(Cl)c12` [X-P, 5-bromo-4-chloro-3-indoxyl-phosphate] as the compound, how does the “coloration >= 1” value ([1]; 24 h at 37° C.) read?
A: Its value is 0%.

Q: And the “coloration >= 1” value ([1]; 48 h at 37° C.)?
A: Its value is 0%.

Q: What about the growth ([1]; 24 h at 37° C.) of the same compound?
A: The growth was 7/7.

Q: And the growth ([1]; 48 h at 37° C.)?
A: The growth was 7/7.

Q: And the “sensitivity of the substrate compared with the other substrates” value (enterobacteria; 24 h)?
A: Its value is “most sensitive”.

Q: What about the “sensitivity of the substrate compared with the other substrates” value (enterobacteria; 48 h) of the same compound?
A: Its value is “largely identical”.

Q: And the coloration (enterobacteria; 48 h at 37° C.)?
A: Its coloration is 97%.

Q: What about the “coloration >= 1” value (enterobacteria; 24 h at 37° C.) of the same compound?
A: Its value is 90%.

Q: And the growth (enterobacteria; 24 h at 37° C.)?
A: The growth was 30/31.

Q: And the growth (enterobacteria; 48 h at 37° C.)?
A: Its growth is 31/31.
